Activity calls are given as the source filed them.
Assays:
[1] = molecular target: T1, Histone-lysine N-methyltransferase NSD2 (Homo sapiens, UniProt O96028); format: biochemical
T1 sequence (O96028 whole entry): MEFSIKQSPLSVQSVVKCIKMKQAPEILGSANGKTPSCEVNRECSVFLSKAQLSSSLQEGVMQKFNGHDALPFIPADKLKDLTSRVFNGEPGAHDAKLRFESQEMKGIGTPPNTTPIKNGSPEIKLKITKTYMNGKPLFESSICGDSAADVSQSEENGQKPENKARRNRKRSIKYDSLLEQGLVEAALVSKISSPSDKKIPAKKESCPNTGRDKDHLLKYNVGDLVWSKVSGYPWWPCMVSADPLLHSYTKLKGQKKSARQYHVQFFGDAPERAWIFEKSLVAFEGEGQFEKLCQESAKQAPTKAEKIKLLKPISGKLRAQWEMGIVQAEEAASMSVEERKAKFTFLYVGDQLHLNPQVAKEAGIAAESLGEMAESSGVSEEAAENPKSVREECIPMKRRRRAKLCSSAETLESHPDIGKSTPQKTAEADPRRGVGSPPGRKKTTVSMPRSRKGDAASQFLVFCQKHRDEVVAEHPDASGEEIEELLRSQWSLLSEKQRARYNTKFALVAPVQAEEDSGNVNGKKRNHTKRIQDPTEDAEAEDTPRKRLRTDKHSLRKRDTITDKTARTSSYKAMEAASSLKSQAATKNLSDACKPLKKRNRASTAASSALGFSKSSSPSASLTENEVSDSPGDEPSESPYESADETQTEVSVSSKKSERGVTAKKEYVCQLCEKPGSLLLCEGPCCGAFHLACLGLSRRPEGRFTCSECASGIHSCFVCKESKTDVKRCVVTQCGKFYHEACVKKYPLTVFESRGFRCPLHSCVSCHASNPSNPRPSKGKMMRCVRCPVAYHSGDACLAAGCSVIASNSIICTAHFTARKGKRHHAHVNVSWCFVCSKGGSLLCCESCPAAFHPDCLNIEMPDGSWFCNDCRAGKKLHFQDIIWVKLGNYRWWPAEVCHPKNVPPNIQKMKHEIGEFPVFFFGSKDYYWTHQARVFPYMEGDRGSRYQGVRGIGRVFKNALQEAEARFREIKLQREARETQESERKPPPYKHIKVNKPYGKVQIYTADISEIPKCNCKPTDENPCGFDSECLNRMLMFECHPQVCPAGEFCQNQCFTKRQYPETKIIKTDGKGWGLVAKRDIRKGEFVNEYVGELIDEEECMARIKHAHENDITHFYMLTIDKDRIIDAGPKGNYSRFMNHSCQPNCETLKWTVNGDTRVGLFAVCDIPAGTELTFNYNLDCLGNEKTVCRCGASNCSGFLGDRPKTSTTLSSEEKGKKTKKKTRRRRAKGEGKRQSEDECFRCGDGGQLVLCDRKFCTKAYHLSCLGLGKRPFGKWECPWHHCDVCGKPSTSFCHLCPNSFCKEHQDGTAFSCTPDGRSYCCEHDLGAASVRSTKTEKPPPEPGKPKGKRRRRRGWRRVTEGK

[2] = molecular target: T2, Zinc finger protein mex-5 (Caenorhabditis elegans, UniProt Q9XUB2); experiment: potency of MEX-5 RNA-binding blockers – biochemical, C. elegans, fluorescence polarization, dose response (AID 1960)
T2 sequence (Q9XUB2 whole entry): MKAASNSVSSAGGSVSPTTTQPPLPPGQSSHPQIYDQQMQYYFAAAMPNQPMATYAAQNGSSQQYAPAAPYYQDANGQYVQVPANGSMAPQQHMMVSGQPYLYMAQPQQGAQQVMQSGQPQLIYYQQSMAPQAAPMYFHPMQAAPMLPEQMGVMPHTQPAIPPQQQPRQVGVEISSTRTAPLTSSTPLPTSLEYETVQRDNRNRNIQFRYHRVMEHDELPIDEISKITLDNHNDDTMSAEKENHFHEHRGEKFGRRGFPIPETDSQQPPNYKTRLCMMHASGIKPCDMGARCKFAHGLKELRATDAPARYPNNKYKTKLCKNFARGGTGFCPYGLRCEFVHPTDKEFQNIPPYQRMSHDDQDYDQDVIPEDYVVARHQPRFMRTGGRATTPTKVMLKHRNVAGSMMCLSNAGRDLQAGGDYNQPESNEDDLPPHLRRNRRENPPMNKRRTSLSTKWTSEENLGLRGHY

[3] = molecular target: Genome polyprotein (dengue virus type 2, UniProt P29990); experiment: flavivirus cap methylation enzyme inhibition – biochemical, confirmation dose response, primary screen (AID 588689); format: functional
Genome polyprotein, sequence (P29990 2492-3391 limits assumed): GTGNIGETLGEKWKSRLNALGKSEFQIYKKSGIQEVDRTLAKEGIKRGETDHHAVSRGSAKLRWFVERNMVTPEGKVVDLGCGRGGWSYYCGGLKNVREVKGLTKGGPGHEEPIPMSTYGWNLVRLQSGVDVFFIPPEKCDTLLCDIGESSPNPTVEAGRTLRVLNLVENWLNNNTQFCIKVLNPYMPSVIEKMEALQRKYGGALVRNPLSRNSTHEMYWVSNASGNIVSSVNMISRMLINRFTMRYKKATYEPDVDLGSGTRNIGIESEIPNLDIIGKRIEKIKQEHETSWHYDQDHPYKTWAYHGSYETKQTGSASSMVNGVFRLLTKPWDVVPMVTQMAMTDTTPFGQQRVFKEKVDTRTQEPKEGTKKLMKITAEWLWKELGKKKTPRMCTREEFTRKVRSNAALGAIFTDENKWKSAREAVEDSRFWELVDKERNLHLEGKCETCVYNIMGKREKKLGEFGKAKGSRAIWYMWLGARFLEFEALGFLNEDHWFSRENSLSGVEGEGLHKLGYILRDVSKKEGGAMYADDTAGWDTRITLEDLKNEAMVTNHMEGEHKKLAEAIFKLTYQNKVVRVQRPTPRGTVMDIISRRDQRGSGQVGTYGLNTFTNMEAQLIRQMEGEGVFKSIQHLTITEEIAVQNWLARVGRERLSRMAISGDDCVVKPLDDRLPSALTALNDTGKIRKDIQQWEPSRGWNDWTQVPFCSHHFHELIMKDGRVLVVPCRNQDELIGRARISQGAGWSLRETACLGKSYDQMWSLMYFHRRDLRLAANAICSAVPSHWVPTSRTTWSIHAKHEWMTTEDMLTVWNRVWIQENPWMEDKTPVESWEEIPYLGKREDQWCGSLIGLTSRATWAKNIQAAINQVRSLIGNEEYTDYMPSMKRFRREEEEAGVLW

[4] = molecular target: Serine/threonine-protein phosphatase (Homo sapiens, UniProt Q9BPW0); experiment: inhibition of protein phosphatase 5 activity – biochemical, fluorescence, dose response (AID 2395)
Serine/threonine-protein phosphatase, sequence (Q9BPW0 whole entry): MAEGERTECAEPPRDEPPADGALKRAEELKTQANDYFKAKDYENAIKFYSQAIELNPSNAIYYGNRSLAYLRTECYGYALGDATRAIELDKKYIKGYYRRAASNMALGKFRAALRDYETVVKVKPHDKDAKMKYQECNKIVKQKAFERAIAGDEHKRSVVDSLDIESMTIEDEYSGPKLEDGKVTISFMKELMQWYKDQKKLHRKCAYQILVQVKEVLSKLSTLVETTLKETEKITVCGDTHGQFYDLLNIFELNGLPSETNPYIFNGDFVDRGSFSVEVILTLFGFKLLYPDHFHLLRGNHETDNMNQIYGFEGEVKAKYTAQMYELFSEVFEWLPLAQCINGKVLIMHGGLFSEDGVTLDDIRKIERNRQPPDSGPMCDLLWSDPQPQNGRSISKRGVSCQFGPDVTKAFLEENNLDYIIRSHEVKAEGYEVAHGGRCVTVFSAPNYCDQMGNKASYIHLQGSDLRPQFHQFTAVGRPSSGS

Row | SMILES | AC50 [1] | EC50 [2] | IC50 [3] | IC50 [4]
1 | Cc1ccc(NC2=CC(=O)C(=O)c3ccccc32)cc1 | 13 µM (active) | – | – | –
2 | O=C(O)c1ccc(S(=O)(=O)/N=C2\C=C(Nc3ccccc3F)C(=O)c3ccccc32)cc1 | – | 60.8 µM (active) | 11.2 µM (active) | > 67 µM (not active)
